Assay results as given in patent US20100137449A1, “SUBSTITUTED 1,3-CYCLOPENTADIONE MULTI-TARGET PROTEIN KINASE MODULATORS OF CANCER, ANGIOGENESIS AND THE INFLAMMATORY PATHWAYS ASSOCIATED THEREWITH” (METAPROTEOMICS, LLC, priority 2007, published 2010).

Key:
Assay in all cases: KinaseProfiler Assay
PAR-1Bα(h) = PAR-1Bα(h) (Homo sapiens, UniProt Q7KZI7)
PTK5(h) = PTK5(h) (Homo sapiens, UniProt P42685)
CDK5/p25(h) = CDK5/p25(h) (Homo sapiens, UniProt Q00535)
cKit(V654A)(h) = cKit(V654A)(h) (Homo sapiens, UniProt P10721, V654A)
Ret(h) = Ret(h) (Homo sapiens, UniProt P07949)
Ret(h), sequence (P07949 29-1114): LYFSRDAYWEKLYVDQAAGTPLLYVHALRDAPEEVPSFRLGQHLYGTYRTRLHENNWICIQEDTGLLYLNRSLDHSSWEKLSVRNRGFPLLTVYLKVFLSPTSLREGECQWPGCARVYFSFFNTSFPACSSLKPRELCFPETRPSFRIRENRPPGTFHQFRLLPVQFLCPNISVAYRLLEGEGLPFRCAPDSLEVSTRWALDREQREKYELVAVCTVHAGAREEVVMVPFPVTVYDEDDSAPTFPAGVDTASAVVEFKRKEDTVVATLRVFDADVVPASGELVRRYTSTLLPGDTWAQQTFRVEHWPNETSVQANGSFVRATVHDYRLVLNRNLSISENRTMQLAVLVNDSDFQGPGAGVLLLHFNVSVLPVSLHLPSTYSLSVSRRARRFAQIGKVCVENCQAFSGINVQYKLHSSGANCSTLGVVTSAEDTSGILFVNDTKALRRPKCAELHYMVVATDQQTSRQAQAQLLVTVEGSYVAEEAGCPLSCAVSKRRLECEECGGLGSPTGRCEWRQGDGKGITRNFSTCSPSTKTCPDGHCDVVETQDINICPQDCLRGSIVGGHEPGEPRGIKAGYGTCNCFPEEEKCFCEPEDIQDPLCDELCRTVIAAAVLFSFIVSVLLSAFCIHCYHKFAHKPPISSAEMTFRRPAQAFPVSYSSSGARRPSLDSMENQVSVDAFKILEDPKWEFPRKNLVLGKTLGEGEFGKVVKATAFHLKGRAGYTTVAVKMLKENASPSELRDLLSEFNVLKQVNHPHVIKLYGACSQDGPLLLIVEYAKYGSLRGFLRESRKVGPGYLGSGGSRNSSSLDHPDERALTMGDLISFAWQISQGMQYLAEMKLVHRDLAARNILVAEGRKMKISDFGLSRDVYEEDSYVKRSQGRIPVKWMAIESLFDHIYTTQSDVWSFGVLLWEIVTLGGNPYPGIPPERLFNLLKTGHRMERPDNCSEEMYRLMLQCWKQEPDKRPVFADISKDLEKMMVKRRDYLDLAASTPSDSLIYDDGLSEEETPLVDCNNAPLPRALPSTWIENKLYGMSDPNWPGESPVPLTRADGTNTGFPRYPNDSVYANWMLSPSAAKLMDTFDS

EphA8(h) = target: T1, EphA8(h) (Homo sapiens, UniProt P29322)
T1 sequence (P29322 28-1005): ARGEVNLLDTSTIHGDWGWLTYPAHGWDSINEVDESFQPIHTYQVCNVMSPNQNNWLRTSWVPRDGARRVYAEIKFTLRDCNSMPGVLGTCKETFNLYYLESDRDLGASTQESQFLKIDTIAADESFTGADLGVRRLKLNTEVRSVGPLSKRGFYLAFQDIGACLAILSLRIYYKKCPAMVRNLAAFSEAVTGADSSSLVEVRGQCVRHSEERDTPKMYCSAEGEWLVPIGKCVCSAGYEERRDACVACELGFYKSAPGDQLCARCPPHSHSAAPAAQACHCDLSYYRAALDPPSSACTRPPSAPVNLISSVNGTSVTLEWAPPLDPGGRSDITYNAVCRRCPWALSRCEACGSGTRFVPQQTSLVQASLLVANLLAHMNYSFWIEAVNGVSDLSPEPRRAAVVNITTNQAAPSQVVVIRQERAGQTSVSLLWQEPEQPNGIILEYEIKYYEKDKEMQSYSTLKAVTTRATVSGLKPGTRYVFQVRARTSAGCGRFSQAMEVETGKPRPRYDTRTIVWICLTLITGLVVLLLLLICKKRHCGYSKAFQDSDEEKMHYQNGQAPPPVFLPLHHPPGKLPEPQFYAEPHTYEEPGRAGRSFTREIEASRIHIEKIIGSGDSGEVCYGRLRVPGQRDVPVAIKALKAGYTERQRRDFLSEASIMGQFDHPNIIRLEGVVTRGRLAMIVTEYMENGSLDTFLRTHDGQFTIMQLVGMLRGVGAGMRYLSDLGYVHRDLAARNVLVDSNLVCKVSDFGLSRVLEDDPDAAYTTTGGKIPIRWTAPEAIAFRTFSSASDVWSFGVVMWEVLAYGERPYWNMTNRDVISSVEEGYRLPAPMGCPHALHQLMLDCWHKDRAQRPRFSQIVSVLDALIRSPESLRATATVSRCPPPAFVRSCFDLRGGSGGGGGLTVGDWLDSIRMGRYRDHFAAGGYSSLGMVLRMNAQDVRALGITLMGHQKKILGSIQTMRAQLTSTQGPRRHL

Fgr(h) = Fgr(h) (Homo sapiens, UniProt P09769)
Fgr(h), sequence (P09769 whole entry): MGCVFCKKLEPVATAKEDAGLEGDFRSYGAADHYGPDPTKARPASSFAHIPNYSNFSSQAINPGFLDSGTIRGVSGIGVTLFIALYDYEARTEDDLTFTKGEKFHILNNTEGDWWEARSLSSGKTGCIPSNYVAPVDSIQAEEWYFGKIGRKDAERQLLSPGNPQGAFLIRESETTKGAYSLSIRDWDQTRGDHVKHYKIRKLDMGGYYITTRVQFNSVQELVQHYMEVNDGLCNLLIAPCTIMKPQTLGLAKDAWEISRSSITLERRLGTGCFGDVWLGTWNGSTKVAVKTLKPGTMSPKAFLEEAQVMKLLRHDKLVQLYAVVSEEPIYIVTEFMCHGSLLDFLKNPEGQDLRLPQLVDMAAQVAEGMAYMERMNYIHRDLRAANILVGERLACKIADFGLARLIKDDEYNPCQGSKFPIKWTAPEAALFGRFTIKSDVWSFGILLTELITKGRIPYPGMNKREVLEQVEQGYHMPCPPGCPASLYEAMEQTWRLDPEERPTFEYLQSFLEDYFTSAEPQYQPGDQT

DAPK2(h) = DAPK2(h) (Homo sapiens, UniProt Q9UIK4)
PKCδ(h) = PKCδ(h) (Homo sapiens, UniProt Q05655)
PKCδ(h), sequence (Q05655 whole entry): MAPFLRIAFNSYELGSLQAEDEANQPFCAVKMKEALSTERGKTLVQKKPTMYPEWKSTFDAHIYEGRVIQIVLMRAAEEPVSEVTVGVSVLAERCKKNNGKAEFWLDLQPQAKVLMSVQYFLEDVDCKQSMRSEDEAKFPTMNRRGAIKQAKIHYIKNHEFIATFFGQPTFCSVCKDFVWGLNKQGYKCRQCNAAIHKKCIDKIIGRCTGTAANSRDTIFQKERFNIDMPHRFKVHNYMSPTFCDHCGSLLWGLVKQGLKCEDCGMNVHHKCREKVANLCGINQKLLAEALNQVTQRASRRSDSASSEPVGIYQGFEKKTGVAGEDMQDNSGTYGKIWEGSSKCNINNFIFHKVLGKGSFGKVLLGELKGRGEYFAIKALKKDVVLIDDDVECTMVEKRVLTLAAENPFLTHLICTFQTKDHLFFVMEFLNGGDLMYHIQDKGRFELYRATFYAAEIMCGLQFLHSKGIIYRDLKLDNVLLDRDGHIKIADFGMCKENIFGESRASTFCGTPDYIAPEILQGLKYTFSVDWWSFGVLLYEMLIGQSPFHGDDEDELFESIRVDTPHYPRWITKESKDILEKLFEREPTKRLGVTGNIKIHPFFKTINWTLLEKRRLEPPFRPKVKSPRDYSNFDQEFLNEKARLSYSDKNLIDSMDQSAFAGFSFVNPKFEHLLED

TSSK1(h) = target: T2, TSSK1(h) (Homo sapiens, UniProt Q9BXA7)
T2 sequence (Q9BXA7 1-367): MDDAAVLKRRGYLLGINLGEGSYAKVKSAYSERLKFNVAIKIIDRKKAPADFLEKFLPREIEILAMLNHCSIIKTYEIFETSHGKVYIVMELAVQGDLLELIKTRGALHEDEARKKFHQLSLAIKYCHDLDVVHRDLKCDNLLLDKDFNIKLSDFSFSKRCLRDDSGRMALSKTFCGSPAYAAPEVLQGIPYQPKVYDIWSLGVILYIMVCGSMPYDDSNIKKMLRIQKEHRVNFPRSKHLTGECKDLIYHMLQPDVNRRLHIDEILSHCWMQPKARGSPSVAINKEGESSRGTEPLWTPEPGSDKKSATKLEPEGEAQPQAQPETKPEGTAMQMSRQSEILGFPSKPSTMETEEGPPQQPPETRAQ

NEK6(h) = NEK6(h) (Homo sapiens, UniProt Q9HC98)
NEK6(h), sequence (Q9HC98 whole entry): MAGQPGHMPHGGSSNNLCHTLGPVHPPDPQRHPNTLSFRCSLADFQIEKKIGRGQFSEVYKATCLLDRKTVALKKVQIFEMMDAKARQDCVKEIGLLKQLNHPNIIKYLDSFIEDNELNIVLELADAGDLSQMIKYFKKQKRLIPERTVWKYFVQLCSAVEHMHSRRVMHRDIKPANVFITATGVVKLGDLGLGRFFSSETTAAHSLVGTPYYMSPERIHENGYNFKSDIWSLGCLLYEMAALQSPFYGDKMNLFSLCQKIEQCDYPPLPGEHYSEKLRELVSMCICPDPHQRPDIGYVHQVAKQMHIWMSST

GSK3α(h) = GSK3α(h) (Homo sapiens, UniProt P49840)
GSK3α(h), sequence (P49840 whole entry): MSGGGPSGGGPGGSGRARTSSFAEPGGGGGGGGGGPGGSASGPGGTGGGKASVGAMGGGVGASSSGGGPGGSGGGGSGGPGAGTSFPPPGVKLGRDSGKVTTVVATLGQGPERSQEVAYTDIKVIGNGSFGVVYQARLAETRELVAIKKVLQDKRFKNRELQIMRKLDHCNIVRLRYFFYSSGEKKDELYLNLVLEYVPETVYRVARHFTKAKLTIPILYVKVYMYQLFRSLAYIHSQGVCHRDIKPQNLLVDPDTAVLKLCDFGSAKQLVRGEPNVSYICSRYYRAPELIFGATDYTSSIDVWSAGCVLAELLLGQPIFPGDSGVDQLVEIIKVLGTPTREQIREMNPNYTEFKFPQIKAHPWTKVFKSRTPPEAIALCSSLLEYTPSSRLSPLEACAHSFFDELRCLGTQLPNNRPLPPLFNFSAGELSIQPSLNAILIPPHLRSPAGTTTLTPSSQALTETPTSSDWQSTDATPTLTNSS

PTK5(h), sequence (P42685 whole entry): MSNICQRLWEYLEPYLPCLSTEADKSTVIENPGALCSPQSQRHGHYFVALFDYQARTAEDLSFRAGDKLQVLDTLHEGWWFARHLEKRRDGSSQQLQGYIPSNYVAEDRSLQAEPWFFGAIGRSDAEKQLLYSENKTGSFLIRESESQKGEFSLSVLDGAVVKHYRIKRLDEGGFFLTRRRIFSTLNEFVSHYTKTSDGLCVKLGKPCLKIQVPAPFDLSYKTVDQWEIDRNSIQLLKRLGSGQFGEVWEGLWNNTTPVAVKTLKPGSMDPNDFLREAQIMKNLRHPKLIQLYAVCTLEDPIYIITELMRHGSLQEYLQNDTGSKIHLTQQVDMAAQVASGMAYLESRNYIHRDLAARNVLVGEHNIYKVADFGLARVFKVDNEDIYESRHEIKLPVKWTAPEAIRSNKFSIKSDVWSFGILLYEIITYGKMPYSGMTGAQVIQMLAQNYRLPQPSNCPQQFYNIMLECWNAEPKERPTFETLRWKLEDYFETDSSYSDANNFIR
PAR-1Bα(h), sequence (Q7KZI7 1-725 isoform Q7KZI7-4): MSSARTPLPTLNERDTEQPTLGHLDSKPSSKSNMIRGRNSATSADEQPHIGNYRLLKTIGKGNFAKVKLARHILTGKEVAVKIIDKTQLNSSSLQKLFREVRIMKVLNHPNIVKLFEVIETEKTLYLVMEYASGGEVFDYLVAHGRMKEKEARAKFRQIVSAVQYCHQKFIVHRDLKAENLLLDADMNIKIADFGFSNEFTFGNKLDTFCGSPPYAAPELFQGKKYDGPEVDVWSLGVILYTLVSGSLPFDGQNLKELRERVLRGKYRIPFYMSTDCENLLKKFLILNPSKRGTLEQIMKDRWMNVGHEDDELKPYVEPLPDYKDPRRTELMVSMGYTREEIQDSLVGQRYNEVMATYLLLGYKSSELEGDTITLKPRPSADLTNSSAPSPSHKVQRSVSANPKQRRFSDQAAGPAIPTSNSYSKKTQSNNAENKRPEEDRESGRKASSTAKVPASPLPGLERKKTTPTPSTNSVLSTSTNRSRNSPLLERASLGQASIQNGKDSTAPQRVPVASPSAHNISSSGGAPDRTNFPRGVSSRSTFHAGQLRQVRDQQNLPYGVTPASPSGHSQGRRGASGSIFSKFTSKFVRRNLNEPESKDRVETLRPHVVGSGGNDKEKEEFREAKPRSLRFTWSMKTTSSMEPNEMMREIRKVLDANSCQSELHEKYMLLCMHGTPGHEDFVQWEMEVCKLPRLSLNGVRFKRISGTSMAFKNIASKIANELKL
CDK5/p25(h), sequence (Q00535 whole entry): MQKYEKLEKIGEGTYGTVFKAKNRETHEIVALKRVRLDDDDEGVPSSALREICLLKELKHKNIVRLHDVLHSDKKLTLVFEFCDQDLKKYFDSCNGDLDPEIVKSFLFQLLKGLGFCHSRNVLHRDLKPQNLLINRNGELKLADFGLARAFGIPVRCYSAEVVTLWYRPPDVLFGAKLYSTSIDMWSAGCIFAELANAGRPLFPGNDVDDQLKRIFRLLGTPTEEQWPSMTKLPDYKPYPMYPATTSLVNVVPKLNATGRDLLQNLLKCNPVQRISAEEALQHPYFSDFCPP
CDK5/p25(h), sequence (Q15078 99-307 partner limits assumed): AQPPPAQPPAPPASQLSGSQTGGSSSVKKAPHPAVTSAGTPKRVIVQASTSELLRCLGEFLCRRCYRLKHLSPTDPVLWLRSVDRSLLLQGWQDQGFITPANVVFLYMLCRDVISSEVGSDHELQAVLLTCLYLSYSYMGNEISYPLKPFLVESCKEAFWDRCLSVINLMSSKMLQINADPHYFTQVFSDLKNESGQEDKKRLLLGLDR

Structure (SMILES): CC(C)CCC(=O)[C@]1(O)C(O)=C(C(=O)C(C)C)C(=O)[C@H]1CCC(C)C [TH2, tetrahydroiso-cohumulone]
- kinase inhibition (PAR-1Bα(h); 1 μg/ml): 109% of control
- kinase inhibition (PAR-1Bα(h); 5 μg/ml): 113% of control
- kinase inhibition (PAR-1Bα(h); 25 μg/ml): 114% of control
- kinase inhibition (PAR-1Bα(h); 50 μg/ml): 116% of control
- kinase inhibition (PAR-1Bα(h); 100 μg/ml): 88% of control
- kinase inhibition (PTK5(h); 1 μg/ml): 116% of control
- kinase inhibition (PTK5(h); 5 μg/ml): 105% of control
- kinase inhibition (PTK5(h); 25 μg/ml): 113% of control
- kinase inhibition (PTK5(h); 50 μg/ml): 112% of control
- kinase inhibition (PTK5(h); 100 μg/ml): 116% of control
- kinase inhibition (CDK5/p25(h); 1 μg/ml): 93% of control
- kinase inhibition (CDK5/p25(h); 5 μg/ml): 96% of control
- kinase inhibition (CDK5/p25(h); 25 μg/ml): 103% of control
- kinase inhibition (CDK5/p25(h); 50 μg/ml): 88% of control
- kinase inhibition (CDK5/p25(h); 100 μg/ml): 77% of control
- kinase inhibition (cKit(V654A)(h); 1 μg/ml): 100% of control
- kinase inhibition (cKit(V654A)(h); 5 μg/ml): 101% of control
- kinase inhibition (cKit(V654A)(h); 25 μg/ml): 112% of control
- kinase inhibition (cKit(V654A)(h); 50 μg/ml): 88% of control
- kinase inhibition (cKit(V654A)(h); 100 μg/ml): 75% of control
- kinase inhibition (Ret(h); 1 μg/ml): 112% of control
- kinase inhibition (Ret(h); 5 μg/ml): 115% of control
- kinase inhibition (Ret(h); 25 μg/ml): 101% of control
- kinase inhibition (Ret(h); 50 μg/ml): 100% of control
- kinase inhibition (Ret(h); 100 μg/ml): 68% of control
- kinase inhibition (EphA8(h); 1 μg/ml): 118% of control
- kinase inhibition (EphA8(h); 5 μg/ml): 99% of control
- kinase inhibition (EphA8(h); 25 μg/ml): 112% of control
- kinase inhibition (EphA8(h); 50 μg/ml): 101% of control
- kinase inhibition (EphA8(h); 100 μg/ml): 100% of control
- kinase inhibition (Fgr(h); 1 μg/ml): 95% of control
- kinase inhibition (Fgr(h); 5 μg/ml): 96% of control
- kinase inhibition (Fgr(h); 25 μg/ml): 112% of control
- kinase inhibition (Fgr(h); 50 μg/ml): 106% of control
- kinase inhibition (Fgr(h); 100 μg/ml): 86% of control
- kinase inhibition (DAPK2(h); 1 μg/ml): 61% of control
- kinase inhibition (DAPK2(h); 5 μg/ml): 56% of control
- kinase inhibition (DAPK2(h); 25 μg/ml): 55% of control
- kinase inhibition (DAPK2(h); 50 μg/ml): 52% of control
- kinase inhibition (DAPK2(h); 100 μg/ml): 49% of control
- kinase inhibition (PKCδ(h); 1 μg/ml): 111% of control
- kinase inhibition (PKCδ(h); 5 μg/ml): 110% of control
- kinase inhibition (PKCδ(h); 25 μg/ml): 97% of control
- kinase inhibition (PKCδ(h); 50 μg/ml): 92% of control
- kinase inhibition (PKCδ(h); 100 μg/ml): 80% of control
- kinase inhibition (TSSK1(h); 1 μg/ml): 105% of control
- kinase inhibition (TSSK1(h); 5 μg/ml): 97% of control
- kinase inhibition (TSSK1(h); 25 μg/ml): 96% of control
- kinase inhibition (TSSK1(h); 50 μg/ml): 91% of control
- kinase inhibition (TSSK1(h); 100 μg/ml): 86% of control
- kinase inhibition (NEK6(h); 1 μg/ml): 103% of control
- kinase inhibition (NEK6(h); 5 μg/ml): 100% of control
- kinase inhibition (NEK6(h); 25 μg/ml): 79% of control
- kinase inhibition (NEK6(h); 50 μg/ml): 67% of control
- kinase inhibition (NEK6(h); 100 μg/ml): 53% of control
- kinase inhibition (GSK3α(h); 1 μg/ml): 94% of control
- kinase inhibition (GSK3α(h); 5 μg/ml): 92% of control
- kinase inhibition (GSK3α(h); 25 μg/ml): 61% of control
- kinase inhibition (GSK3α(h); 50 μg/ml): 51% of control
- kinase inhibition (GSK3α(h); 100 μg/ml): 43% of control
